Among the data in the Kinase Knowledgebase extract (Sharma et al. 2016) are IC50, inhibition and ED50 values, retold here.

Each structure is given as a SMILES string.

Assay [1] concerns the target EGFR (human) (UniProt P00533).
Assay [2] has as its target CDK2 (human) (UniProt P24941). The assay is described as follows: Enzyme Assay.
Assay [3] deals with CDK2 (human) (UniProt P24941). The assay is described as follows: Enzyme Assay. The source holds these as a separate data set.
The target in assay [4] is EGFR (human) (UniProt P00533). The assay is described as follows: Assessment of EGFR Kinase Activity.
Sequence of EGFR (human) (P00533 whole entry, looked up): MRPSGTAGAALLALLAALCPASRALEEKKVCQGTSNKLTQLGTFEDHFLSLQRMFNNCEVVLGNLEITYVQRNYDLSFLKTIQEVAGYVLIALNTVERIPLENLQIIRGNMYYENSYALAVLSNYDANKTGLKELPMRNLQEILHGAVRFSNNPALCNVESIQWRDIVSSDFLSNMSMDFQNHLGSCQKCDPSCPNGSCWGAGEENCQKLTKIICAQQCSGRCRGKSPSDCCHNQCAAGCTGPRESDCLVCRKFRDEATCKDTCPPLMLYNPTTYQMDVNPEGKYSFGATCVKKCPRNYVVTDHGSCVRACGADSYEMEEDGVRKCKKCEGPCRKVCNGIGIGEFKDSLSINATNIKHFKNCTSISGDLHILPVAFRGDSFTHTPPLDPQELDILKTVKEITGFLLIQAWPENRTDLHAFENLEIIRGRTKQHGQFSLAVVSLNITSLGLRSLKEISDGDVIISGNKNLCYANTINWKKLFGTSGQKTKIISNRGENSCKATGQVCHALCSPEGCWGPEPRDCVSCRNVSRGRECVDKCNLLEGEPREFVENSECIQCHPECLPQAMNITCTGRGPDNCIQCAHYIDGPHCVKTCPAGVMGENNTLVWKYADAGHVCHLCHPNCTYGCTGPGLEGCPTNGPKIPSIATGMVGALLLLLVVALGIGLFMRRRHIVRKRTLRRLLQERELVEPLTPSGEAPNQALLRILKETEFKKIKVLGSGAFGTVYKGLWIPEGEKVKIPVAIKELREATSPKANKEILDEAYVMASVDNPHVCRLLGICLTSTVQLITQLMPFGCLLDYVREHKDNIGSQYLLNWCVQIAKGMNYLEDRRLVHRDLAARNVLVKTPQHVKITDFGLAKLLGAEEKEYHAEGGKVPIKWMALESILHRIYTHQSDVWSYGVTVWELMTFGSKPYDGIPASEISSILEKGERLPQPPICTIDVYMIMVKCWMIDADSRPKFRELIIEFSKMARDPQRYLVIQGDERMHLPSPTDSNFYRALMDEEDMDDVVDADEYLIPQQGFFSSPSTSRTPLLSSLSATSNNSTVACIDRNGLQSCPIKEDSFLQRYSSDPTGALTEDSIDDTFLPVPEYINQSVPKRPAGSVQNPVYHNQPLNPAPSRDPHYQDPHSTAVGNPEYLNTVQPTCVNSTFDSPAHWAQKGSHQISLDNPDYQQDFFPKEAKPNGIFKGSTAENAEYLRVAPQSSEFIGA
Assay [5] concerns the target PIK3CA (human), P42336 [Wild-Type]. Briefly: Assessment of Proliferation of NZB5 Cells Expressing Wild-Type PIK3CA Kinase.
The target in assay [6] is PIK3CA (human), P42336 [Assessment of Proliferation of NZOV9 Cells Expressing PIK3CA (Mutant) Kinase]. Briefly: Assessment of Proliferation of NZOV9 Cells Expressing PIK3CA (Mutant) Kinase.
Assay [7] concerns the target CDK2 (UniProt P24941). Briefly: Enzyme Assay.
Assay [8] concerns the target CDK2 (UniProt P24941). Briefly: Enzyme Assay. This is another data set of the same source.
Assay [9] has as its target ROCK2 (human) (UniProt O75116). Briefly: Assessment of ROCK2 Kinase Activity using Luciferin-Luciferase Assay.
The target in assay [10] is ROCK2 (human) (UniProt O75116). Briefly: Assessment of ROCK2 Kinase Activity using IMAP Assay.
Assay [11] has as its target MAPK14 (UniProt Q16539). The assay is described as follows: p38 Kinase Inhibition.
Another assay has as its target MAPK14 (human) (UniProt Q16539). Briefly: p38-mediated TNF-alpha Inhibition (THP1 Cells).
Assay [12] deals with MAPK14 (sprague-dawley rat). Briefly: p38-mediated TNF-alpha Inhibition (Sprauge-Dawley Rats). Conditions: dose or concentration not given here.
The target of a further assay is PIK3CA (human) (UniProt P42336). The assay is described as follows: Enzyme Assay.
The target of the next assay is PIK3CB (Human) (UniProt P42338). Briefly: Enzyme Assay.
Sequence of PIK3CB (Human) (P42338 whole entry, looked up): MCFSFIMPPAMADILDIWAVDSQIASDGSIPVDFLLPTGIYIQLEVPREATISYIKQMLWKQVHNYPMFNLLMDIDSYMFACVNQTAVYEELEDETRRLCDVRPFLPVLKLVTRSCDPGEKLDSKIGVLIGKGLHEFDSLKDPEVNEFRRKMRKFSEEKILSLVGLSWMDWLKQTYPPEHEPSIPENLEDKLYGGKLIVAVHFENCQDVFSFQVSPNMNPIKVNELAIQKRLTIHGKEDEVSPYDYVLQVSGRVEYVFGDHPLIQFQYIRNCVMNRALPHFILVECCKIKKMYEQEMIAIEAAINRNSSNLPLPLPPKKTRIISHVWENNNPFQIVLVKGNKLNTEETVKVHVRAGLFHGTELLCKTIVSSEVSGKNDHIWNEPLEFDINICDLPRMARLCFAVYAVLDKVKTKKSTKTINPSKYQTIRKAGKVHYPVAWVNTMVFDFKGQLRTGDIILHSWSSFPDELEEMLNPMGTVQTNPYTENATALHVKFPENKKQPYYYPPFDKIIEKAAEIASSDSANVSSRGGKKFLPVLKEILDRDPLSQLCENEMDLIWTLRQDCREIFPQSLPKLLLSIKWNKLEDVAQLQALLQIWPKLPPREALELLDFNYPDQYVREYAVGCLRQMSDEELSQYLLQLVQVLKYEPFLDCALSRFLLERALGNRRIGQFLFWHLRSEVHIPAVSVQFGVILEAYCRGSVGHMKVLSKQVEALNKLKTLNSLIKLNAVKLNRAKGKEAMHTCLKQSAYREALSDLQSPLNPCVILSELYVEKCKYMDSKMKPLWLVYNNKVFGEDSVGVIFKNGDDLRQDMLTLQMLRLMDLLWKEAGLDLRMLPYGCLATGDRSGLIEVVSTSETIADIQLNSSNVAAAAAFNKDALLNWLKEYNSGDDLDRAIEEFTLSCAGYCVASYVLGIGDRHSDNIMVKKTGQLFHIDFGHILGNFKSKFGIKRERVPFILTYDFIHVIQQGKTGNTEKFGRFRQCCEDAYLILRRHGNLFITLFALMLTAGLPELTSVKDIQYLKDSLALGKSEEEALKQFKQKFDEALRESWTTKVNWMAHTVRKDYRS
Assay [13] addresses PIK3CD (Human) (UniProt O00329). The assay is described as follows: Enzyme Assay.
The target of a further assay is PIK3CG (human) (UniProt P48736). Briefly: Enzyme Assay.
Sequence of PIK3CG (human) (P48736 whole entry, looked up): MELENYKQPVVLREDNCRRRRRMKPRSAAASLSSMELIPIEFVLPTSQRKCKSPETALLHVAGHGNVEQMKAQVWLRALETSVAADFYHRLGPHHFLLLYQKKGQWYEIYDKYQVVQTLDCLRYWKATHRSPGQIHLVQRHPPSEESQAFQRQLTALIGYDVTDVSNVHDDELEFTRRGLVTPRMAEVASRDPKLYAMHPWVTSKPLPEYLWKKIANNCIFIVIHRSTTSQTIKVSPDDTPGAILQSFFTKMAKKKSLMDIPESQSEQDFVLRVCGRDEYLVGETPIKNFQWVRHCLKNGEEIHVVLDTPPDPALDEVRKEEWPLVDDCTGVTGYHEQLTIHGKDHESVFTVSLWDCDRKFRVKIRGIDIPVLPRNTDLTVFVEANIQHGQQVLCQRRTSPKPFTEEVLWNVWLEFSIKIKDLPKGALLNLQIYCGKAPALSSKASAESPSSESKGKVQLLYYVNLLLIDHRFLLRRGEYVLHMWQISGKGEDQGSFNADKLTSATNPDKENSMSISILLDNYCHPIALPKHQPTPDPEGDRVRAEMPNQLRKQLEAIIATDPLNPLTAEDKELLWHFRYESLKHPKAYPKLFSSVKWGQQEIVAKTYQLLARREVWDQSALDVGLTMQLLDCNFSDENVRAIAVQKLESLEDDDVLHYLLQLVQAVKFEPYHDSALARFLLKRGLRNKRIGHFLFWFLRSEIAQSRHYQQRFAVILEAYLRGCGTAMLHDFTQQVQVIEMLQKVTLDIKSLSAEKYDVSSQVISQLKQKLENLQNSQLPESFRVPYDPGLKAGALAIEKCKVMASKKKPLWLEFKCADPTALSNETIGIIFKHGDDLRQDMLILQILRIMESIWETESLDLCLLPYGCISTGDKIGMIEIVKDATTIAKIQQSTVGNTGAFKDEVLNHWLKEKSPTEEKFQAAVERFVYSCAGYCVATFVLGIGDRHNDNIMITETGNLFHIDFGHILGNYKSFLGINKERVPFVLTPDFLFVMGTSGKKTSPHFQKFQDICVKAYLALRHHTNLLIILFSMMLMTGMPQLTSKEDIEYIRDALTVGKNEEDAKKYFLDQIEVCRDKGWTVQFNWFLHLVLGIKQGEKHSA
Assay [14] addresses PIK3CD (Human) (UniProt O00329). Briefly: Cell-Based Assay. Conditions: raji.
A further assay addresses PIK3CG;PIK3CA (human) (UniProt P48736). Briefly: Inhibition of PIK3CG/PIK3CA Kinase Activity.
In assay [15] the target is EGFR (human) (UniProt P00533). This is another data set of the same source.
The target of assay [16] is PIK3CA (human), P42336 [H1047R]. The assay is described as follows: Assessment of PIK3CA(H1047R) Dependent Antiproliferative Activity in KPL-4 Cells.
Another assay has as its system MAPK14 (rat). Briefly: p38-alpha Inhibition (Collagen-Induced Arthritis).
A further assay has as its target EGFR (UniProt P00533).
Assay [17] addresses EGFR (human), P00533 [WT].
Assay [18] addresses CDK2 (human) (UniProt P24941). The assay is described as follows: Enzyme Assay. The source holds these as a separate data set.
For assay [19], the target named is CDK2 (human) (UniProt P24941). The assay is described as follows: Enzyme Assay. The source holds these as a separate data set.
Assay [20] addresses PIK3CD (Human), O00329 [Inhibition of PIK3CG Kinase Activity]. The assay is described as follows: Enzyme Assay.
Assay [21] concerns the target MAPK14 (UniProt Q16539). The assay is described as follows: p38 Inhibition (Phosphorylation of EGF Receptor Peptide).
Assay [22] has as its target EGFR (human) (UniProt P00533). Conditions: A431 epidermoid carcinoma.
In assay [23] the target is EGFR (human) (UniProt P00533). Conditions: A431; concentration not given here.
Assay [24] has as its target EGFR (Human), P00533 [T790M/L858R]. The conditions noted are these: h1975.
For assay [25] the target is unchanged.

Sequence of MAPK14 (Q16539 whole entry, looked up): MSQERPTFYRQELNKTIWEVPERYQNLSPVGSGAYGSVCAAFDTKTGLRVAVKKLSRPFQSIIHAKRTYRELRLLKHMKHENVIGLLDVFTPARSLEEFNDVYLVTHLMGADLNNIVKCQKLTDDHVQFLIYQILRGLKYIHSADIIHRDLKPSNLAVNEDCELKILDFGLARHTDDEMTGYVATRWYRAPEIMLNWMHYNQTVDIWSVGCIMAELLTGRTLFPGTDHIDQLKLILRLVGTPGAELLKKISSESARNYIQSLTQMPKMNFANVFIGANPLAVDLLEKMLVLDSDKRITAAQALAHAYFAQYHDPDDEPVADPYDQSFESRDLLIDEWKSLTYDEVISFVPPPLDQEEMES
Sequence of PIK3CD (Human) (O00329 whole entry, looked up): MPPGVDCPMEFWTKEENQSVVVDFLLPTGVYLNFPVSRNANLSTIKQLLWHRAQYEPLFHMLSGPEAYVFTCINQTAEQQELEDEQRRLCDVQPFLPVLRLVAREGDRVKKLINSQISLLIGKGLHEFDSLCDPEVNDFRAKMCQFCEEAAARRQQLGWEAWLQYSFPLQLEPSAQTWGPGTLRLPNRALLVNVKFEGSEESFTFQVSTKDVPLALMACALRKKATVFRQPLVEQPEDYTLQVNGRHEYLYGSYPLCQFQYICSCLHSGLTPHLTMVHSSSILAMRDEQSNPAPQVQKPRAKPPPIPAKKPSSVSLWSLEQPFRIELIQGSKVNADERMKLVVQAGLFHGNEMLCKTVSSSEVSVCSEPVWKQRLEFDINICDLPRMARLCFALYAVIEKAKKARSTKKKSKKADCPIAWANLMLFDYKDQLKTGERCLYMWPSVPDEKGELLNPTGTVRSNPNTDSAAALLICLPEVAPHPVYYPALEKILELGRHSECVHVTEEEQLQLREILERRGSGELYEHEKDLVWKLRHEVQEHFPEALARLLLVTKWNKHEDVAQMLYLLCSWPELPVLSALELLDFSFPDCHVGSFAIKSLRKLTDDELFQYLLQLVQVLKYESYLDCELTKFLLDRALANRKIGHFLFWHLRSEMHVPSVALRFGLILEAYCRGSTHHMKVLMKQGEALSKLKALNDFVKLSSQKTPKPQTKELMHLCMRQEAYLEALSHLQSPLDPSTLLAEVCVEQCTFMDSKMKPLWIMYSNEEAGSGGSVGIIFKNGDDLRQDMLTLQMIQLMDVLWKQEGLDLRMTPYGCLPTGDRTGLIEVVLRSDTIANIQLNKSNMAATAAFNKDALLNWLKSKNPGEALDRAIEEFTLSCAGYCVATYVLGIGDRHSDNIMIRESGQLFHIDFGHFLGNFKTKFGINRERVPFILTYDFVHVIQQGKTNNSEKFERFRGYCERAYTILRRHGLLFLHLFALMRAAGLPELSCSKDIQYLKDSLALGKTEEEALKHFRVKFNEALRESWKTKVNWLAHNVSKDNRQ
Sequence of PIK3CG;PIK3CA (human) (P48736 whole entry, looked up): as the sequence (P48736 whole entry, looked up) above
Sequence of MAPK14 (human) (Q16539 whole entry, looked up): as the sequence (Q16539 whole entry, looked up) above
Sequence of PIK3CD (Human), O00329 [Inhibition of PIK3CG Kinase Activity] (O00329 whole entry, looked up, change not shown): as the sequence (O00329 whole entry, looked up) above

What is called IC50 is the concentration that gives 50% inhibition. On EGFR (human) [1], `N#CC(C#N)=C(N)/C(C#N)=C/c1ccc2ccccc2n1` displayed an IC50 of 1700 nM. Regarding `O=C1Nc2ccc(Br)cc2/C1=C1/Nc2ccccc2C1=NO`, the IC50 at CDK2 (human) [2] was 460 nM; at CDK2 (human) [3] it was 120 nM; against EGFR (human) [4] it was above 100000 nM.

As to `N#Cc1cccc2c1nc(C(F)F)n2-c1nc(N2CCOCC2)nc(N2CCOCC2)n1`, the IC50 in assay [5] and in [6] was above 20000 nM throughout.

For `O=C1CN=C2C=NC(Nc3ccc(N4CCNCC4)cc3)=NC2N1C1CCCC1` (stereo unspecified), the IC50 against CDK2 [7] was determined as 610 nM; against CDK2 [8] it was 180 nM. For `CN1CCc2ccc(NC(=O)c3cccc(CNC(=O)c4ccc(-c5csnn5)cc4)c3)cc2C1`, the IC50 against ROCK2 (human) [9] and at ROCK2 (human) [10] was 4.6 nM throughout. For orientation: inhibition means the percentage by which the read-out fell short of the control. High values mean a strong effect, low ones a weak effect. On to `Nc1c(C(=O)c2cccc(NC=NO)c2)cnn1-c1ccc(F)cc1`, for which the IC50 worked out at 1450 nM against MAPK14 [11] and 170 nM against MAPK14 (human). The inhibition in [12] stood at 76%. On to `C[C@H](NC(=O)c1c(N)nn2cccnc12)c1cc2cccc(Cl)c2c(=O)n1CCNS(=O)(=O)C(F)(F)F`, for which the IC50 lay within 1000 to 10000 nM at PIK3CA (human); 1000 to 10000 nM on PIK3CB (Human); 1000 to 10000 nM on PIK3CD (Human) [13]; 500 to 1000 nM against PIK3CG (human); 10 to 100 nM on PIK3CD (Human) [14].

Compound `C[C@H]1COCCN1c1cc(C2(S(C)(=O)=O)CC2)nc(-c2ccc(NC(=O)Nc3cnn(C)c3)cc2)n1` returned an IC50 at PIK3CG;PIK3CA (human) of 1040 nM. For the compound `COc1cc2ncnc(Nc3ccc(NC(=O)NC4CCCCC4)cc3)c2cc1OC`, the IC50 against EGFR (human) [15] came to 9810 nM.

`Oc1cccc(-c2nc(N3CCOCC3)nc3c2CCN3c2cccnc2)c1` came in with a half-maximal inhibitory concentration (IC50) in assay [16] of 450 nM. The term ED50 denotes the midpoint of the dose-response relation. A lower ED50 goes with an effect at a small dose. Take `CN1CCC(O)(c2nc(-c3ccc(F)cc3)c(-c3ccncc3)o2)CC1`: the ED50 in the assay with MAPK14 (rat) worked out at 20 mg/kg/day. Turning to `Brc1cccc(Nc2ncnc3ccccc23)c1`, the IC50 against EGFR came out at 126 nM; in [17], 27 nM. `CN1CCN(c2ccc(Nc3ncc4cc(C#N)c(=O)n(C5CCCC5)c4n3)cc2)CC1`: the IC50 at CDK2 (human) [2] amounted to 97.3 nM; against PIK3CA (human), 1060 nM; against PIK3CB (Human), 759 nM; against PIK3CG (human), 1120 nM; against CDK2 (human) [18], 770 nM; against CDK2 (human) [19], 1350 nM. The compound `CCN1CCN(CC(=O)Nc2ccc(-c3cccc4c(=O)cc(N5CCOCC5)oc34)c3sc4ccccc4c23)CC1` had a half-inhibitory concentration (IC50) in [20] below 1 nM. Consider `O=c1ncn2nc(Sc3ccccc3)ccc2c1-c1ccccc1`, for which, on MAPK14 [21], the IC50 is above 20000 nM. Compound `Cn1c(SSc2c(C(=O)Nc3ccccc3)c3ccc(C(F)(F)F)cc3n2C)c(C(=O)Nc2ccccc2)c2cc(C(F)(F)F)ccc21` registered a half-inhibitory concentration (IC50) at EGFR (human) [22] above 100000 nM. Compound `Oc1cccc(-c2nc3ccc(O)cc3s2)c1` yielded an inhibition against EGFR (human) [23] of 4%. With `C=CC(=O)NCCN1C(=O)N(Cc2ccccc2)Cc2cnc(Nc3ccc(N4CCN(C)CC4)cc3OC)nc21`, in assay [24], the IC50 was above 10000 nM. With `C=CC(=O)Nc1cccc(N2C(=O)N(Cc3ccccc3)Cc3cnc(Nc4ccc(N5CCN(C)CC5)cc4OC)nc32)c1`, the IC50 in [25] was 0.7 nM.
